In patent publication US12419305B2, “Antimicrobial compositions” (Firmenich SA, priority 2018, dated 2025):

Assays:
[1] = test system: E. coli ATCC 10536; assay: BCT test (bacterial contact time), 45 s, log reduction / effect fraction; CI by Compusyn; format: cell-based, Escherichia coli; details: 45 s, in 20% EtOH
Description: (§1) E. coli, S. aureus, P. aeruginosa, and S. enterica: Separate suspensions of the E. coli ATCC 10536 strain, S. aureus ATCC 6538 strain, Pseudomonas aeruginosa ATCC 15442 strain, and the Salmonella enterica ATCC 10708 strain were prepared as follows: Stock cultures (stored at −80° C.) were thawed and sub-cultured onto Tryptic Soy Agar (TSA) agar plate media, and incubated at 37° C. for 24 h to obtain single colonies. Single colonies of the primary cultures were streaked onto TSA plates and incubated at 37° for 24 h to generate secondary cultures. Single colonies of secondary cultures picked and used to inoculate into 50 mL of TSB broth. The inoculated TSB broth was incubated at 37° C. at 180 rpm for 18 h. Aliquots (0.5 ml) of the 18 h culture were inoculated into 50 ml of fresh TSB broth, and incubated at 37° C. at 180 rpm for 2-3 hours. When the OD600 nm value of the broth reached 1-2, cells were harvested by centrifugation at 5000 rpm for 10 min, and then resuspended in fresh TSB broth at a concentration of 1-5×10^8 CFU/mL. These suspensions were used as the bacterial suspensions for the BCT test.
(§2) BCT Test: Test compositions at a range of concentrations (either combinations of more than one perfume ingredient, and comparative compositions comprising the single perfume ingredients) were prepared in ethanol. Five replicates of each test composition were added into 96-well microtiter plates (120 μl per well), with row B containing control compositions containing the ethanol solution alone. 120 μl of bacterial cell suspensions at a concentration of approximately 1×10^8 bacteria per mL (as prepared above) were added to each well of the microtiter plate. The bacterial suspensions were incubated with the test solutions for 45, 60, or 120 seconds. Following the incubation of the bacterial suspensions with the test solutions, serial dilutions of the bacterial suspensions were generated (three serial 1:10 dilutions, followed by 17 serial 1:2 dilutions), in multiwell microtiter plates.
(§3) Each plate was sealed and incubated at 37° C. under agitation (180 rpm). After incubation, the turbidity of the wells (OD600 nm) was determined using a Tecan microplate reader. Turbid wells were regarded as positive growth, due to the presence of viable cells. The total number of viable cells (log CFU) for each sample was calculated. And the log reduction for each test composition at the final concentration (dose) was calculated against the control sample of the ethanol solution.
(§4) Determination of Synergy via the Combination Index (CI): The CI was calculated using Compusyn software (ComboSyn, Inc., as created by Dr. Dorothy Chou in 2005), according to the manufacturer's instructions. The concentration of each test composition (combinations of more than one perfume ingredient, and comparative compositions comprising the single perfume ingredients used to generate the combination) and their corresponding effect fraction was entered, and the corresponding CI calculated.
(§5) When the calculated CI values were less than 0.9, the combination of perfume ingredients was regarded as having synergistic effect. When the calculated CI was between 1.0 a 0.9, the combination of perfume ingredients was regarded as having an additive effect. When the calculated CI was greater than 1.0, the combination of perfume ingredients was regarded as having an antagonistic effect.

[2] = test system: Pseudomonas aeruginosa ATCC 15442; assay: BCT test (bacterial contact time), 60 s, log reduction / effect fraction; CI by Compusyn; format: cell-based; details: BCT 60 s, in 25% EtOH
Description: as §1, §2, §3, §4, §5

[3] = test system: S. aureus ATCC 6538; assay: as above; format: cell-based, Staphylococcus aureus; details: Staphylococcus aureus, ATCC6538, 1 min, 60 s, in 25% EtOH
Description: as §1, §2, §3, §4, §5

Compound: O=Cc1ccc2c(c1)OCO2 [Heliotropine, 1,3-benzodioxole-5-carbaldehyde]
- log reduction at 0.45 % strength ([1]; Escherichia coli, ATCC10536, 45 s, dose 0.450 % w/v): 0.1
- log reduction at 0.55 % strength ([1]; Escherichia coli, ATCC10536, 45 s, dose 0.550 % w/v): 5.3
- log reduction at 0.6 % strength ([1]; Escherichia coli, ATCC10536, 45 s, dose 0.600 % w/v): 7.3
- Log reduction ([1]; dose 0.450 % w/v): 0.1
- Log reduction ([2]; Dose 0.2 % w/v): 0.00
- log reduction at 0.2 % strength ([2]; Pseudomonas aeruginosa, ATCC15442, 1 min, Dose 0.2 % w/v): 0
- log reduction at 0.3 % strength ([2]; Pseudomonas aeruginosa, ATCC15442, 1 min, Dose 0.3 % w/v): 0.6
- log reduction at 0.4 % strength ([2]; Pseudomonas aeruginosa, ATCC15442, 1 min, Dose 0.4 % w/v): 3.4
- log reduction at 0.45 % strength ([2]; Pseudomonas aeruginosa, ATCC15442, 1 min, Dose 0.45 % w/v): 4.1
- log reduction at 0.55 % strength ([2]; Pseudomonas aeruginosa, ATCC15442, 1 min, Dose 0.55 % w/v): 7.6
- log reduction at 0.5 % strength ([3]; dose 0.500 % w/v): 0.7
- log reduction at 0.6 % strength ([3]; dose 0.600 % w/v): 2.7
- log reduction at 0.7 % strength ([3]; dose 0.700 % w/v): 6.1
- log reduction at 0.75 % strength ([3]; dose 0.750 % w/v): 7.1
- log reduction at 1 % strength ([3]; dose 1.000 % w/v): 7.1
